The subject of series [1] is Rattus norvegicus. The experiment in a line: Compound was evaluated ex vivo for inhibition of LTB4 production in rat air pouch inflammatory exudate at 3 hr after peroral administration. The format is functional. The note with it: po.
Series [2] is described as follows: Aqueous solubility was determined. The format is physicochemical.
The species named for series [3] is Homo sapiens. Put plainly: In vitro inhibition of LTB4 production in human blood. Type of series: functional.

The structures appear in SMILES notation. pIC50: −log10 of the molar value. Converted amounts (≈) assume the structure as drawn.

Regarding `COC1(c2cc(F)cc(OCc3ccc4c(ccc(=O)n4C)c3)c2)CCOCC1` [ZD-2138], it took a dose of 0.3 mg/kg to reach the 50% effect level in series [1] (ED50). Also, in series [2], the concentration in solution (solubility) came to 3.8 µM (≈ 1.51 µg/mL).

Consider `COC1(C(=O)CC(=O)OCc2ccc3c(ccc(=O)n3C)c2)CCOCC1`, for which, in series [1], the ED50 was more than 5 mg/kg. The pIC50 in series [3] was less than 5.00.

In series [1], `COC1(/C=C/C(=O)OCc2ccc3c(ccc(=O)n3C)c2)CCOCC1` displayed an ED50 of more than 5 mg/kg. This molecule showed a pIC50 in series [3] of 5.77.

For `COC1(/C(C)=C/C(=O)OCc2ccc3c(ccc(=O)n3C)c2)CCOCC1`, the ED50 in series [1] is more than 5 mg/kg. For the same molecule, in series [3], the pIC50 was 5.68.

Take `COC1(C(=N)/C=C(\O)OCc2ccc3c(c2)OCC(=O)N3C)CCOCC1`: in series [1], the ED50 amounted to 5 mg/kg. The pIC50 in series [3] is 7.22. The molecule further returned a solubility in series [2] of 25 µM (≈ 9.41 µg/mL).

In turn, `COC1(/C=C/COCc2ccc3c(ccc(=O)n3C)c2)CCOCC1` returned an ED50 in series [1] of more than 5 mg/kg. Further, the pIC50 in series [3] was 6.30.

Molecule `COC1(C(=N)/C=C(\O)OCc2ccc3c(ccc(=O)n3C)c2)CCOCC1` gave an ED50 in series [1] of 3 mg/kg. In series [3], this molecule gave a pIC50 of 7.40. Besides, the solubility in series [2] is 150 µM (≈ 55.9 µg/mL).

For `CO/C(=C\C(=O)OCc1ccc2c(ccc(=O)n2C)c1)C1(OC)CCOCC1`, the 50% effective dose (ED50) in series [1] is more than 5 mg/kg. Moreover, the pIC50 in series [3] was 5.59.

On to `COC1(C(=N)/C=C(\O)OCc2ccc3ccccc3c2)CCOCC1`, for which the median effective dose (ED50) in series [1] is more than 5 mg/kg. The pIC50 in series [3] was 7.15. In series [2], this molecule had a solubility of 50 µM (≈ 17.1 µg/mL).

As usually defined, the ED50 is the dose at which the effect has come halfway, by size or by number of responders. Lower therefore signals an effect at a small dose. One may read the solubility as how much of the substance goes into solution per volume. What is called pIC50 is the IC50 on a negative log10 scale, so that one unit is a factor of ten. A higher pIC50 goes with a small IC50.

The values are drawn from ChEMBL document CHEMBL1153693, “Inhibitors of leukotriene B4. Synthesis and sar of new -enaminoester open-chain analogues of zeneca ZD2138” (Bioorg Med Chem Lett, 1996).
